According to patent US20050220912A1, “Anti-inflammatory composition for treating pelvic endometriosis” (priority 2004, published 2005):

Experiments:
[1] = commercially available chondroitin sulfate preparations (cow trachea); cited from earlier work
[2] = Effect of olive kernel extract on absorption of tritiated chondroitin sulfate in vivo (serum radioactivity after oral capsule); parameters: species or system male Sprague-Dawley rats; conditions: serum radioactivity at 8 hours
Description: Chondroitin sulfate was tritiated by New England Nuclear Corp. to a specific activity of 4.3 mCi/ml.
Unlabeled chondroitin sulfate was dissolved in olive kernel extract at a ratio of about 55 w/v chondroitin sulfate powder to about 450 w/v of olive kernel extract (2.9% acidity as oleic acid, 1.03% water, 0.08% hexane). To this solution was added 20.2 microcuries of the labeled chondroitin sulfate. AAA gelatin capsules were filled with the resulting solution using an aluminum template molding device.
The laboratory animals (250 g male Sprague-Dawley rats) were kept overnight without food but with free access to water. One capsule containg the above-described chondroitin sulfate-olive kernel extract solution was given to each rat per os. Control animals were given the equivalent amount of chondroitin, but without olive kernel extract. The animals were then given free access to food. Serum radioactivity was measured 8 hours thereafter in a beta scintillation counter.

[3] = Chondroitin sulfate solubility in oils; format: physicochemical; conditions: in codfish oil, corn oil and olive oil (from the flesh of the olive)
Source text: Parallel experiments with codfish oil, corn oil and olive oil (from the flesh of the olive) were comtemplated, but chondroitin sulfate solubility in these oils was insufficient to meet the requirements of the experiment.

dose of labeled chondroitin sulfate that reached the circulation ([2]; control animals, per os capsule without olive kernel extract, n=3): about 3.9%+/−0.4%
dose of labeled chondroitin sulfate absorbed into the general circulation ([2]; per os capsule, chondroitin sulfate dissolved in olive kernel extract, n=4): about 14.3%+/−0.7%
chondroitin sulfate solubility [3]: insufficient
Substance: chondroitin sulfate
Absorption from g.i. tract / absorbed orally [1]: less than 5%
